# Assay results from US10961189B2, “Spiro-lactam NMDA receptor modulators and uses thereof” (Aptinyx Inc., priority 2016, dated 2021).
# Read-outs that look alike come from different tables or passages of the source.
# How the values were obtained:
# [1] = IV pharmacokinetics; assay type: in vivo, Sprague Dawley rats; conditions: rat, normal saline (* in 5% NMP, 5% Solutol HS, 90% normal saline); for Vd: read-out: Vss
# From the text: The table below summarizes the results of the IV pharmacokinetics.
# [2] = target: T1, NMDAR2A (Homo sapiens, UniProt Q12879); assay: [3H]MK-801 binding in NMDAR expressing HEK cell membranes (facilitation of NMDAR activation); assay type: biochemical; conditions: 50 μM glutamate; for Emax: 0.25 h, read-out: A: % maximal [3H]MK-801 binding relative to 1 mM glycine; for EC50: read-out: B: log EC50 (converted)
# T1 construct: expressed in transfected cells; host or cells: HEK cells (membrane extract)
# T1 sequence (Q12879 23-1464, species assumed, other chains not shown): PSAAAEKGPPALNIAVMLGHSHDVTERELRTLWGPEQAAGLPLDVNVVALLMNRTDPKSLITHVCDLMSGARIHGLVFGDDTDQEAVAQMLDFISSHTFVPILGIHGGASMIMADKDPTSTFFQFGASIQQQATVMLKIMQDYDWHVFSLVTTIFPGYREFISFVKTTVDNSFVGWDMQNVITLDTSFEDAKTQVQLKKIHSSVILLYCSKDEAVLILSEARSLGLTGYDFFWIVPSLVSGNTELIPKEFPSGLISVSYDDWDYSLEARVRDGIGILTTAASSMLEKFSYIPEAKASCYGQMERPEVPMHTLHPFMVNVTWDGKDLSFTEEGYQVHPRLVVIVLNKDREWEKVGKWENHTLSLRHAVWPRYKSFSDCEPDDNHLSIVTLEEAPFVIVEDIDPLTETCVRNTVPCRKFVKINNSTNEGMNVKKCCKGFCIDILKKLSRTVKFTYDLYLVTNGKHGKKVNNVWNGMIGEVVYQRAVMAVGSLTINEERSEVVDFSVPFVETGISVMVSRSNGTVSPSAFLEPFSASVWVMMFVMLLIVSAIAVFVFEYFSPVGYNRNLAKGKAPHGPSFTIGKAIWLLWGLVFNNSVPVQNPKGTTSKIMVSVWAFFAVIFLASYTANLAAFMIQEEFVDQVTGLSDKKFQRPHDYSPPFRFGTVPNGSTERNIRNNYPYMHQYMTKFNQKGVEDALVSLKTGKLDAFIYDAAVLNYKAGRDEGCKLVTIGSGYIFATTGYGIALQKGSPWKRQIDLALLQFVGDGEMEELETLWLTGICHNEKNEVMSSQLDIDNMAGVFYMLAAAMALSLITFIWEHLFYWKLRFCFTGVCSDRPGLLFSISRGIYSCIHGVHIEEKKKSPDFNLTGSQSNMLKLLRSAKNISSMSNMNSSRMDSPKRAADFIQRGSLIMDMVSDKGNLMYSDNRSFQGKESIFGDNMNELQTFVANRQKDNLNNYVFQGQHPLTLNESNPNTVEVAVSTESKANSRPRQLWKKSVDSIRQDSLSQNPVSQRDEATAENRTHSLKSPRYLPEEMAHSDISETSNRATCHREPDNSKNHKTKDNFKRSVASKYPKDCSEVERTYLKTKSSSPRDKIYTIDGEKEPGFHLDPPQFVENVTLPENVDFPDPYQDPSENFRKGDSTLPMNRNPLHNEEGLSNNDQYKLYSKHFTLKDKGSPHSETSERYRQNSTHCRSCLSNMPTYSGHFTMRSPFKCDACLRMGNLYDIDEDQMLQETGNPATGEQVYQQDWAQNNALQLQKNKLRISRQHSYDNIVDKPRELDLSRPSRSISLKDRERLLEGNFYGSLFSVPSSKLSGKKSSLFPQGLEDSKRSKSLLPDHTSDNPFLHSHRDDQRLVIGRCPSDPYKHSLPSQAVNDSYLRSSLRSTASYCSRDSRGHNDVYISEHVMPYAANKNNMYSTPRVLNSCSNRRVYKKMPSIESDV
# Outline: (§1)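 HEK membranes (300 μg) expressing the NMDAR subunit were preincubated 15 min at 25 °C with 50 μM glutamate and compound ([…]−1×10^−7M), then with 0.3 μCi [3H]MK-801 for 15 min under nonequilibrium conditions and filtered. Baseline-subtracted DPM was expressed as % of 1 mM glycine, and EC50 and % maximal binding came from three-parameter curve fits.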
# [3] = target: T2, NMDAR2B (Homo sapiens, UniProt Q13224); assay: as above; assay type: biochemical; conditions: 50 μM glutamate; for EC50: read-out: B: log EC50 (converted); for Emax: 0.25 h, read-out: A: % maximal [3H]MK-801 binding relative to 1 mM glycine
# T2 construct: expressed in transfected cells; host or cells: HEK cells (membrane extract)
# T2 sequence (Q13224 27-1484, species assumed, other chains not shown): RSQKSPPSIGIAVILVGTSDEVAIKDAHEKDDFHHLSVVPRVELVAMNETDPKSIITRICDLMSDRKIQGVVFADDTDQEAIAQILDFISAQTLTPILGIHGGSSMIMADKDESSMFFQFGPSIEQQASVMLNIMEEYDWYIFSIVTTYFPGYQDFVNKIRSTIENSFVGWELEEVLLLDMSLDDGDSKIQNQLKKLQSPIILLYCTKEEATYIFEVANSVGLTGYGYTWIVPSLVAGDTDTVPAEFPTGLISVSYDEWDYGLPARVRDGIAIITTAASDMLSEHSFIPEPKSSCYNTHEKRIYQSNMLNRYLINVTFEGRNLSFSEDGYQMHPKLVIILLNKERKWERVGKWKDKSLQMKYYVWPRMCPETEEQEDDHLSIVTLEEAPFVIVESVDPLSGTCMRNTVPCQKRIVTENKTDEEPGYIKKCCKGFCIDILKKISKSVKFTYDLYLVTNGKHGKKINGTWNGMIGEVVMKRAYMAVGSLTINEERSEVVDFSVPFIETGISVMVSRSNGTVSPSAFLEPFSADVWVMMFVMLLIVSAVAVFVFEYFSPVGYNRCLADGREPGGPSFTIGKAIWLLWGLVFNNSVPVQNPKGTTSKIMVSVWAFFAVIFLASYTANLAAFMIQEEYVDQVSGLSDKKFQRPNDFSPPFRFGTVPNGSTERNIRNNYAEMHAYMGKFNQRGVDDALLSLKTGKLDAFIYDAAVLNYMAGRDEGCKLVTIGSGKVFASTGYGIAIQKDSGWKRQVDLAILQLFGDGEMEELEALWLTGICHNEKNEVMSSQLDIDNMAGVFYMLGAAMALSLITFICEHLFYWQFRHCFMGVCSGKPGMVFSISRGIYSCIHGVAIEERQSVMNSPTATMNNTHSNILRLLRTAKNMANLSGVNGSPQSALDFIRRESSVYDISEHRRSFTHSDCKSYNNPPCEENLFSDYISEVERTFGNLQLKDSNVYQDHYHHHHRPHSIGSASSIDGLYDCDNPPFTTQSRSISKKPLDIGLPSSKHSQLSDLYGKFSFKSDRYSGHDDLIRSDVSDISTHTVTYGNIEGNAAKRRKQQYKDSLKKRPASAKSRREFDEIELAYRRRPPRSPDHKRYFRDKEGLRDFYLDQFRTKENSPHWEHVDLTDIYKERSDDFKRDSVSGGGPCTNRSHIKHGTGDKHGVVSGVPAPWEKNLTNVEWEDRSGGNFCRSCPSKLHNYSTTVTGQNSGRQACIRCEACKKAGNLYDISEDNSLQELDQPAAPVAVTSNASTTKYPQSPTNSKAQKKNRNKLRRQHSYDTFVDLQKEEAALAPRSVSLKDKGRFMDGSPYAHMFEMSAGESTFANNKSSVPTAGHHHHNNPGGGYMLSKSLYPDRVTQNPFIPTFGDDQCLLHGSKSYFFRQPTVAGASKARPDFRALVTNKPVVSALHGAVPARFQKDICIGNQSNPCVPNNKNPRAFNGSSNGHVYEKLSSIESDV
# Outline: as §1
# [4] = system: Sprague Dawley rats; assay: Bennett model of mechanical analgesia (sciatic nerve chronic constriction, paw withdrawal threshold); assay type: in vivo, rat;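 also: log paw withdrawal threshold scaled from vehicle group mean (0%) to naive 15 g value (100%)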
# Method: The Bennett model of mechanical analgesia is used to assess the analgesic effects of compounds as measured by paw withdrawal threshold. Bennett GJ, Xie YK, “A peripheral mononeuropathy in rat that produces disorders of pain sensation like those seen in man,” Pain 33:87-107, 1988. […] Vehicle animals receive the surgery and then receive vehicle rather than test compound. Animals were tested 1 hr, 24 h and 1 wk post-test compound or vehicle administration.
# Male 2-3 month old Sprague Dawley rats were used. Harlan was the supplier for all studies. Rats were housed in Lucite cages with aspen wood chip bedding, maintained on a 12:12 light:dark cycle (lights on at 5 AM), and given ad libitum access to Purina lab chow (USA) and tap water throughout the study.
# Rats were anesthetized using inhaled isoflurane (2.5%). Sciatic nerve chronic constriction nerve injury surgery was performed as previously described (Bennett and Xie, 1988). An incision (˜1.5 cm in length) was made with a scalpel blade dorsally through skin on the right hind limb, parallel and posterior to femur. Using a small pointed hemostat, the biceps femoris and gluteus superficialis muscles were separated. Using curved blunt forceps, the common sciatic nerve was isolated and exposed. For the mechanical analgesia studies, the whole sciatic nerve was ligated. Using hemostats/forceps and chromic gut (5-0), the nerve was loosely ligated with a square knot; 3 ligatures, 1 mm apart were placed on the nerve. […] Testing occurred approximately 2 weeks post-surgery.
# During testing, rats were acclimated to the surface of a suspended wire mesh grid (1 cm×1 cm, with the wire being 0.3 cm in diameter) for 15-20 min. Starting from the smallest, each Von Frey filament was pressed perpendicularly to the plantar surface of the affected (ipsilateral) hind paw until slightly bent and then held for 6 second. If an obvious hind paw withdrawal or a flinching behavior immediately after the withdrawal of the filament was not observed, the next larger filament was used in the same manner. In case of a response, a lower filament was used. This was repeated until six responses were collected.
# For all studies, animals were baselined prior to study start to test for allodynia (defined as a paw withdrawal threshold under 5). A subset of animals was tested with gabapentin (150 mg/kg, PO) to ensure at least 50% analgesia. Once it was confirmed animals were ready for study initiation, animals were balanced across groups. All study investigators were blind to treatment conditions. Animals were dosed with 0.1, 1 or 10 mg/kg of test compound via oral gavage (PO), control sets of animals were dosed with gabapentin (150 mg/kg, PO) or vehicle (0.5% Na-CMC in 0.9% sterile saline, PO). Testing occurred 1 h post-dosing with animals retested 24 hrs and 1 week post-dosing. The percent analgesia calculations for each animal were made using the following equation: % analgesia=[(log(x)−y)/((log (z)−y)]*100, where x=the paw withdrawal threshold for the drug-treated animal in grams, y=the average of the log(x) values for the vehicle treated group, and z=the paw withdrawal threshold for naïve animals in grams (historical value of 15 used).
# The results are shown in the table below where the percentage of analgesia is measured at 1 hour, 24 hours, and 1 week after compound administration. Since each study had its own gabapentin control group, an example gabapentin control value is shown.
# [5] = Sprague-Dawley, in vivo, iv, 2 mg/kg
# [6] = Sprague-Dawley, in vivo, iv, 2 mg/kg, read-out: C0
# [7] = Sprague-Dawley, in vivo, intravenous 2 mg/kg
SMILES,"AUC(0-t) [1, 5] [µg·h/mL]","half-life [1, 5] [h]","C0 [1, 6] [µg/mL]","Vd [1, 5] [L/kg]",CI ([1]; intravenous 2 mg/kg) [L/h/kg],EC50 [3] [nM],"% analgesia ([4]; 0.1 mg/kg PO, 1 wk) [%]","% analgesia ([4]; 0.1 mg/kg PO, 1 h) [%]","% analgesia ([4]; 0.1 mg/kg PO, 24 h) [%]","% analgesia ([4]; 1 mg/kg PO, 1 wk) [%]","% analgesia ([4]; 1 mg/kg PO, 1 h) [%]","% analgesia ([4]; 1 mg/kg PO, 24 h) [%]","% analgesia ([4]; 10 mg/kg PO, 1 wk) [%]","% analgesia ([4]; 10 mg/kg PO, 1 h) [%]","% analgesia ([4]; 10 mg/kg PO, 24 h) [%]",Emax [2] [%],Emax [3] [%],EC50 [2] [nM],also measured
"O=C1NCC12CCC(O)CC2 (stereo not shown) [AL, 7-hydroxy-2-azaspiro[3.5]nonan-1-one]",6.22,3.73,3.99,0.83,0.324,< 1,3.1,20.9,10.8,6.6,52.7,14.4,1.1,61.9,13.8,,,,A: % maximal [3H]MK-801 binding relative to 1 mM glycine [2]: − (−=0); A: % maximal [3H]MK-801 binding relative to 1 mM glycine [3]: + (<100%=+)
"CC1CCC2(CC1)CNC2=O (racemic) [Compound AD, 7-methyl-2-azaspiro[3.5]nonan-1-one]",1.36,0.79,2.06,0.97,1.474,≥ 1,0,18.4,4.7,17.9,15.4,13.8,15.5,15.3,7.6,0,< 100,,
"C[C@@H](O)[C@H](NC1CCC2(CC1)CNC2=O)C(N)=O (single isomer, unassigned) [AP]",,,,,,< 1,,,,,,,0,28.0,0,< 100,< 100,< 1,"AUClast ([1]; intravenous 2 mg/kg, 2 mg/kg): 2.941 µg·h/mL; C0 ([1]; intravenous 2 mg/kg, 2 mg/kg): 6.4204 µg/mL; CI ([1]; intravenous 2 mg/kg, 2 mg/kg): 0.6726 L/h/kg; T1/2 ([1]; intravenous 2 mg/kg, 2 mg/kg): 2.77 h; Vss ([1]; intravenous 2 mg/kg, 2 mg/kg): 0.92 L/kg"
"O=C1NCC12CCC(OCc1ccccc1)CC2 (single isomer, unassigned) [AI, 7-(benzyloxy)-2-azaspiro[3.5]nonan-1-one]",1.26,1.37,4.33,0.75,1.571,< 1,7.7,5.3,7.7,10.2,40.4,23.4,22.0,50.0,33.2,< 100,< 100,< 1,
COc1ccc(CN2CC3(CCC(O)CC3)C2=O)cc1 (stereo not shown) [AG],,,,,3.082,< 1,1.7,26.7,14.8,0,41.5,23.7,0,56.9,26.7,< 100,< 100,≥ 1,"AUC(0-t) [1, 7]: 0.65 µg·h/mL; half-life [1, 7]: 0.4 h; C0 ([1]; Sprague-Dawley, in vivo, intravenous 2 mg/kg, read-out: C0): 2.65 µg/mL; Vd [1, 7]: 0.7 L/kg"
